Key:
[1] = molecular target: T1, human estradiol (E) receptor (Homo sapiens, UniProt P03372); format: binding
T1 construct: present in human breast tumor cells (MCF-7 cells); endogenous in cells; host or cells: MCF-7 human breast tumor cells
T1 sequence (P03372 1-595): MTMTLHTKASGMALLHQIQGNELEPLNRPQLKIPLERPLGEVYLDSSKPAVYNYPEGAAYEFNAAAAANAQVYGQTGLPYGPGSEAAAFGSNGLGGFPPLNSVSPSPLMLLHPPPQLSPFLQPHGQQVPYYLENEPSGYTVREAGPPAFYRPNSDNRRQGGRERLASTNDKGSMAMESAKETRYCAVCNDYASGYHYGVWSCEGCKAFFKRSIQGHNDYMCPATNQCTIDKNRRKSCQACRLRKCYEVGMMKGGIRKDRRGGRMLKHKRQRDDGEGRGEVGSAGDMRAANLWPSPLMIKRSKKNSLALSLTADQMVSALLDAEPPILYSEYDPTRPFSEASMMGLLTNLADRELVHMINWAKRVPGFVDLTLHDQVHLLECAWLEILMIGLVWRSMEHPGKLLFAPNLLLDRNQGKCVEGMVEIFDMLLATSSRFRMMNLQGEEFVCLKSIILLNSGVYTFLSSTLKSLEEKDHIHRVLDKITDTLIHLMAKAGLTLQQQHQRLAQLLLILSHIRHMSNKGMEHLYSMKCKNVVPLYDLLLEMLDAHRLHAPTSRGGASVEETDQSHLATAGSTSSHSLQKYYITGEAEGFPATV
Method: The relative estradiol receptor binding affinity was measured in the same manner as described above but using 17βestradiol as a reference.
(§1) Several of the compounds according to the Examples I-VI, as well as other compounds according to the invention synthesized in analogous manner, were subjected to the tests described in the Examples VII and VIII. The results are described in the Table, in which the type of A-ring and the substitution at carbon atoms nos. 7, 11, and 17 is indicated. In the columns captioned E and P, the relative binding affinities for the estrogen and progesterone receptors are given; the ED50 results of the AllenDoisy and the McPhail tests have been indicated in μg/kg. In the column captioned "Osteoporosis", the ED50 results of the anti-osteoporosis test are given (dose in μg/kg, day, as described above).

[2] = tested on: human progesterone (P) receptor; assay: Relative progesterone receptor binding affinity, cytoplasmic receptors of MCF-7 cells; details: relative to (16α)-16-ethyl-21-hydroxy-19-norpregn-4-ene-3,20-dione, 16 h, 4° C
ovariectomised rats = assay: Prevention of ovariectomy-induced bone loss in rats (anti-osteoporosis test, pQCT trabecular bone mineral density); format: in vivo, rat (female Wistar); details: Rattus norvegicus, 672 h; oral administration; ovariectomised rats, once or twice daily for 4 weeks; 40-60% proportional difference in trabecular bone mineral density; read-out: Osteoporosis ED50
Excerpt: Ovariectomy induces in rats bone loss, which is due to oestrogen deficiency. Administration of oestrogenic compounds prevents this effect. The test is used to evaluate a compound for anti-osteoporotic activity in ovariectomised rats. The effect on bone mass can be evaluated by peripheral Quantitave Computed Tomography (pQCT) measurement of trabecular bone mineral density.
Mature virgin female Wistar rats preferentially, 225-250 g. Strain: Hsd/Cpd:Wu, SPF-bred by Harlan, CPB, Zeist, The Netherlands.
On day 1 of the experiment the rats are weighed and distributed over the cages in order of body weight. The rat with the lowest body weight in the first cage and the heaviest rat in the last cage. Treatments are randomized over the rats per block. A block (group of 3+n treatments) consists of 1 Intact placebo rat, 1 OVX placebo rat, 1 OVX reference rat and 1 rat of each n treatments.
Sham-operation and ovariectomy are performed under ether anaesthesia. After recovery from the anaesthesia, within 24 h, vehicle, reference compound or test compound is administered once or twice daily for 4 weeks.
Trabecular bone mineral density (mg/cm^3) of the metaphyseal part of the femur was measured with a pQCT (peripheral Quantitative Computed Tomography machine; XCT 960A, Stratec, Birkenfeld, Germany) directly after autopsy on fresh tissue. Two 360° scans, which have, due to the X-ray beam, a standard thickness of 1 mm were taken. The scans have a resolution of 0.148×0.148 mm. One scan was taken at 5.5 mm from the distal end of the femur, where trabecular bone mineral density of the metaphyseal part was measured. The other scan was taken in the diaphysis at 13.5 mm from the distal end, which contains no trabecular bone. In the latter scan cortical bone mineral density and the geometrical parameters, such as cortical thickness, total bone area, outer and inner diameter, were determined. Intra- and inter-assay variation for the measurement of trabecular bone mineral density in the distal femur were about 2-3%. The XCT-960A was calibrated with a standard of hydroxyapatite embedded in acrylic plastic.
Ovariectomy causes a statistically significant decrease in trabecular bone mineral density (P≤0.05, 2 way ANOVA).
The active dose (ED50) is the dose where a mean proportional difference in trabecular bone mineral density between 40 and 60% is reached as compared to the sham and ovariectomised group.
as §1

[3] = Allen Doisy test for estrogenic activity in vivo; details: oral administration; estrogenic activity; read-out: AllenDoisy ED50
[4] = McPhail test for progestagenic activity in vivo; details: oral administration; progestagenic activity; read-out: McPhail ED50

With `CCC[C@@H]1Cc2cc(O)ccc2[C@H]2CC[C@@]3(C)[C@@H](C[C@H]4CCCC[C@]43O)[C@H]12` [Code 38515, (7-alpha,16-alpha,17-alpha)-7-propyl-16,24-cyclo-19,21-dinorchola-1,3,5(10)-trien-3,17-diol] the “Relative binding affinity to the human estradiol (E) receptor” value [1] was 16%, the “Relative binding affinity to the human progesterone (P) receptor” value [2] was 10% and the ED50 (ovariectomised rats) was 0.19 mg/kg. For the same compound, the ED50 [3] was 0.096 mg/kg and the ED50 [4] was 4 mg/kg.

Source: patent publication US6313180A, “Steroid compounds having contraceptive and anti-osteoporosis activity” (priority 1997, dated 2001)
